For five molecules, IC50 results are on record in patent US20120165346A1, “Compounds and their use as BACE inhibitors” (ASTRAZENECA AB, priority 2010, published 2012).

The target in test [1] is T1, human β-Secretase (AA 1-AA 460), sBACE-Fc (Homo sapiens, UniProt P56817).
T1 construct: soluble part of the human β-Secretase (AA 1-AA 460) was cloned; Fc domain of IgG1; made in house
Put plainly: Diluted TR-FRET assay. The test is classed as biochemical. The settings on record: footnote a: diluted FRET assay, 50 times less enzyme, 6.5 h reaction time at r.t.; read-out: IC50 in TR-FRET assay (IC50 from the diluted FRET assay). Here is the method: The cDNA for the soluble part of the human β-Secretase (AA 1-AA 460) was cloned using the ASP2-Fc10-1-IRES-GFP-neoK mammalian expression vector. The gene was fused to the Fc domain of IgG1 (affinity tag) and stably cloned into HEK 293 cells.
The robotic systems Biomek FX and Velocity 11 were used for all liquid handling and the enzyme and substrate solutions were kept on ice until they were placed in the robotic system. Enzyme (9 μA) was added to the plate then 1 μA of compound in dimethylsulphoxide was added, mixed and pre-incubated for 10 minutes. Substrate (10 μA) was then added, mixed and the reaction proceeded for 15 minutes at r.t. The reaction was stopped with the addition of Stop solution (7 μl, NaAcetate, pH 9). […] The dimethylsulphoxide control, instead of test compound, defined the 100% activity level and 0% activity was defined by wells lacking enzyme (replaced with reaction buffer).
(Time-resolved FRET reads energy transfer from a long-lived donor to a nearby acceptor.)

The test system of test [2] is sAPPβ release, SH-SY5Y cells. In words: sAPPβ release assay. The test is classed as cell-based. As to conditions: Homo sapiens, compounds incubated 17 h. Here is the method:
SH-SY5Y cells were cultured in DMEM/F-12 with Glutamax, 10% FCS and 1% non-essential amino acids and cryopreserved and stored at −140° C. at a concentration of 7.5−9.5×10^6 cells per vial. Thaw cells and seed at a conc. of around 10000 cells/well in DMEM/F-12 with Glutamax, 10% FCS and 1% non-essential amino acids to a 384-well tissue culture treated plate, […] cell susp/well. The cell plates were then incubated for 7-24 h at 37° C., 5% CO2. The cell medium was removed, followed by addition of 30 μL compound diluted in DMEM/F-12 with Glutamax, 10% FCS, 1% non-essential amino acids and 1% PeSt to a final conc. of 1% DMSO. The compounds were incubated with the cells for 17 h (overnight) at 37° C., 5% CO2. Meso Scale Discovery (MSD) plates were used for the detection of sAPPβ release. MSD sAPPβ plates were blocked in 1% BSA in Tris wash buffer (40 μL/well) for 1 h on shake at r.t. and washed 1 time in Tris wash buffer (40 μL/well). 20 μL of medium was transferred to the pre-blocked and washed is MSD sAPPβ microplates, and the cell plates were further used in an ATP assay to measure cytotoxicity. The MSD plates were incubated with shaking at r.t. for 2 h and the media discarded. 10 μL detection antibody was added (1 nM) per well followed by incubation with shaking at r.t. for 2 h and then discarded. 40 μL Read Buffer was added per well and the plates were read in a SECTOR Imager.

In general, IC50 refers to the concentration at which inhibition is half-maximal.

T1 sequence (P56817 22-460): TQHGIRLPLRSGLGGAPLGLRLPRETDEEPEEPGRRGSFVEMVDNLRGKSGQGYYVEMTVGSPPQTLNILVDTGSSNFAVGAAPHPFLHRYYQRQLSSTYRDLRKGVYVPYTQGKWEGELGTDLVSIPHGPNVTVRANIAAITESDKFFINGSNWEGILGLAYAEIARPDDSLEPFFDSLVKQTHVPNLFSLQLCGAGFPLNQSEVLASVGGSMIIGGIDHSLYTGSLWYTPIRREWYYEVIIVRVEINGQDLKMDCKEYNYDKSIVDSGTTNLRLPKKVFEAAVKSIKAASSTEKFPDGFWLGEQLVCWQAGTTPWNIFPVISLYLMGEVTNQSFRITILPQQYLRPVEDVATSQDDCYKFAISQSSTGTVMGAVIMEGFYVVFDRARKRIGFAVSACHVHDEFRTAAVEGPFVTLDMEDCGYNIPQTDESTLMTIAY

Turning to `CCn1cc(C2(c3cccc(-c4cncc(C#N)c4)c3)N=C(N)c3c(F)cccc32)cc(C)c1=O` (stereo not shown) [Example 8, 5-(3-(3-Amino-1-(1-ethyl-5-methyl-6-oxo-1,6-dihydropyridin-3-yl)-4-fluoro-1H-isoindol-1-yl)phenyl)nicotinonitrile], the IC50 in test [1] is 8 nM; in test [2], 2 nM.

Consider `CC#Cc1cncc(-c2cccc(C3(c4cc(C(F)F)c(=O)n(CC)c4)N=C(N)c4c(F)cccc43)c2)c1` (stereo not shown) [Example 23, 5-(3-Amino-4-fluoro-1-(3-(5-(prop-1-ynyl)pyridin-3-yl)phenyl)-1H-isoindol-1-yl)-3-(difluoromethyl)-1-ethylpyridin-2(1H)-one], for which the IC50 in test [1] was determined as 6 nM; in test [2], 4 nM.

As for `CCn1cc(C2(c3cccc(-c4cncnc4)c3)N=C(N)c3c(F)cccc32)cc(C)c1=O` (stereo not shown) [Example 6, 5-(3-Amino-4-fluoro-1-(3-(pyrimidin-5-yl)phenyl)-1H-isoindol-1-yl)-1-ethyl-3-methylpyridin-2(1H)-one], the half-maximal inhibitory concentration (IC50) was found to be 16 nM in test [1] and 9 nM in test [2].

Consider `CC#Cc1ccnc(-c2cccc([C@@]3(c4cc(C)c(=O)n(CC)c4)N=C(N)c4c(F)cccc43)c2)c1` [Example 25, (R)-5-(3-Amino-4-fluoro-1-(3-(4-(prop-1-ynyl)pyridin-2-yl)phenyl)-1H-isoindol-1-yl)-1-ethyl-3-methylpyridin-2(1H)-one], for which the IC50 in test [1] was determined as 5 nM; in test [2] it was 2 nM.

As to `CC#Cc1cncc(-c2cccc([C@@]3(c4cc(C)c(=O)n(C)c4)N=C(N)c4c(F)cccc43)c2)c1` [Example 1, (R)-5-(3-Amino-4-fluoro-1-(3-(5-(prop-1-ynyl)pyridin-3-yl)phenyl)-1H-isoindol-1-yl)-1,3-dimethylpyridin-2(1H)-one], the values for the IC50 in test [1] and in test [2] were 6 nM and 2 nM, respectively.
